Experimental data taken from US5441948A, “1,3,4-benzotraizepin-5(4H)-one derivatives and process for the preparation thereof” (priority 1992, dated 1995).

What was measured:
[1] = tested on: isolated canine Purkinje fibres; experiment: Intracellular electrophysiology, action potential duration (50% and 90% repolarization) in isolated canine Purkinje fibres; assay type: cell-based, canine (mongrel dogs)
Experimental: I. Intracellular electrophysiological studies on isolated canine Purkinje fibres: study of the characteristics and the duration of the action potential
Mongrel dogs of both sexes, weighing 8-22 kg, were anaesthetized with intravenously administered sodium pentobarbital, 30 mg/kg (Nembutal®).The superficial Purkinje fibres were excised from the heart and placed in plastic organ bath containing Tyrode's solution ([…] of Na^+, 4.0 mM of K^+, 133.3 mM of Cl^-, 2.0 mM of Ca^2+, 22.0 mM of HCO3 -, 0.9 mM of H2 PO4^+, 0.7 mM of Mg^2+, 5.0 mM of glucose) The perfusate (Tyrode's solution) was gassed with a mixture of 95% of O^2 and 5% of CO2. Temperature of the organ bath was 37.0°±0.5° C. pH=7.3±0.5. Purkinje fibres were incubated for 1-2 hours in order to avoid spontaneous changes in the duration of action potential, to be observed often for a short period after the preparation completed. Conventional glass microelectrode method was used to measure intracellular action potentials. The electrodes were filled with 3M KCl solution, resistance was 5-15 Mohm. Microelectrodes were connected to high input-resistance capacity-neutralizing amplifier through a Ag-AgCl connection. Another electrode was placed in the organ bath as a reference electrode. Maximum rate of depolarization (Vmax) was measured with an electronic differentiating unit. The intracellular pulses were visualized on a two-channel oscilloscope by a microcomputer in on-line mode. The following parameters were measured: resting potential, action potential amplitude, 50% and 90% repolarizations, maximum rate of depolarization. Preparations were stimulated through silver electrodes insulated with PTFE. Parameters of stimuli were rectangular pulses of 1 ms duration with an intensity of two times the threshold. The basal stimulation periods were changed between 200 and 1000 msec. [Varre et al., J. Cardiovasc. Pharmacol. 11, 251 (1988)].
The applied dose of the compounds according to the invention is 10 mg/L.
Concentration of Pinacidil: 1 mg/L
Concentration of Nicorandil: 5 mg/L
APD: action potential duration

[2] = tested on: vasopressin-induced ST elevation; experiment: Inhibitory effect on the vasopressin-induced ST elevation in anaesthetized rats; assay type: in vivo, CFY male rats; conditions: vasopressin 3 IE/kg i.v.
Experimental: II. Inhibitory effect on the vasopressin-induced ST elevation in anaesthetized rats
The studies were performed in 200-250 g CFY male rats. Animals were anaesthetized with intraperitoneally administered urethane ([…]), then subjected to ECG, using limb leads. Coronary spasm, reflected by elevated ST deflection in the ECG recordings, was induced by treating the rats with 3 IE/kg of vasopressin intravenously. […] Methods. 5, 325-336 (1981)].
Dose of compounds of the invention: 1 mg/kg, i.v. except where appears

[3] = result in words, characteristic of drugs with merely K+-channel-activating activity; cited from earlier work
[4] = 5.0 mg/kg i.v. pretreatment (*)

Structure (SMILES)	ADD90 Change (%) ([1]; 10 mg/L)	ARD50 Change (%) ([1]; 10 mg/L)	ADD90 after treatment ([1]; 10 mg/L) [ms]	ARD50 after treatment ([1]; 10 mg/L) [ms]	Inhibition (%) of vasopressin-induced ST elevation ([2]; 1 mg/kg, i.v. pretreatment) [%]	other results
CN1NC(N=C(N)N2CCCCC2)=Nc2ccccc2C1=O [Example 4, 2-[Amino-(1-piperidinyl)-methyleneamino]-4-methyl-3,4-dihydro-4H-1,3,4-benzotriazepin-5-one]	-10	-33	226	113		Inhibition (%) of vasopressin-induced ST elevation [2, 4]: -36%
CC(NC(N)=NC1=Nc2ccccc2C(=O)N(C)N1)C(C)(C)C (stereo not drawn) [Example 17, 2-[amino-(3,3-dimethyl-2-butylamino)-methyleneamino]-4-methyl-3,4-dihydro-1,3,4-benzotriazepin-5(4H)-one]	-13	-42	221	91	-68	
CC(NC1=Nc2ccccc2C(=O)N(C)N1)C(C)(C)C (stereo not drawn) [Example 18, 2-(3,3-dimethyl-2-butylamino)-4-methyl-3,4-dihydro-1,3,4-benzotriazepin-5(4H)-one]	-15	-29	213	111		
COc1cc(C(=O)OCCCN2C(N=C(N)N3CCCNCC3)=Nc3ccccc3C(=O)N2C)cc(OC)c1OC [Example 19, 2-[amino-(1-homopiperazinyl)-methyleneamino]-3-[3-(3,4,5-trimethoxybenzoyloxy)-1-propyl]-4-methyl-3,4-dihydro-1,3,4-benzotriazepin-5(4H)-one]	-9	-25	237	121	-59	
CN1C(=O)c2ccccc2N=C(NCc2cccnc2)N1CCCN1CCN(c2ccccc2)CC1 [Example 20, 2-(3-pyridylmethylamino)-3-[3-(4-phenyl-1-piperazinyl)-1-propyl]-4-methyl-3,4-dihydro-1,3,4-benzotriazepin-5 (4H)-one]	-5	-42	227	79		
CN1C(=O)c2ccccc2N=C(N=C(N)N2CCCCC2)N1Cc1ccccn1 [Example 22, 2-[amino-(1-piperidinyl)-methyleneamino]-3-(2-pyridylmethyl)-4-methyl-3,4-dihydro-1,3,4-benzotriazepin-5(4H)-one]	-10	-39	219	97	-59	
O=C(NCCO[N+](=O)[O-])c1cccnc1 [Nicorandil, reference compound]					-12	ADD90 Change (%) ([1]; Nicorandil 5 mg/L): -32%; ARD50 Change (%) ([1]; Nicorandil 5 mg/L): -41%; ADD90 after treatment ([1]; Nicorandil 5 mg/L): 179 ms; ARD50 after treatment ([1]; Nicorandil 5 mg/L): 107 ms; Inhibition (%) of vasopressin-induced ST elevation [2, 4]: -60%
CC(N/C(=N\C#N)Nc1ccncc1)C(C)(C)C (stereo not drawn) [Pinacidil, reference compound]						unpleasant side-effects [3]: tachycardia and the so-called "first dose effect"; ADD90 Change (%) ([1]; Pinacidil 1 mg/L): -45%; ARD50 Change (%) ([1]; Pinacidil 1 mg/L): -61%; ADD90 after treatment ([1]; Pinacidil 1 mg/L): 141 ms; ARD50 after treatment ([1]; Pinacidil 1 mg/L): 71 ms
